Molecular target: T1, LdtR (Candidatus Liberibacter asiaticus, UniProt A0ABN4AZS1)
T1 construct: gene WSI_01095
Format: binding
Conditions: promoters of CLIBASIA_02120 and CLIBASIA_03520; pH 7.2, 150 mM KCl, 10 mM MgCl2, 37 °C

CCc1oc2ccccc2c1C(=O)c1cc(Br)c(O)c(Br)c1 [benzbromarone]
EMSA, disruption of LdtR binding to promoter DNA: benzbromarone and phloretin disrupted the binding of LdtR to both promoters (Fig. S2)

O=C(CCc1ccc(O)cc1)c1c(O)cc(O)cc1O [phloretin]
EMSA, disruption of LdtR binding to promoter DNA: benzbromarone and phloretin disrupted the binding of LdtR to both promoters (Fig. S2)

Source: article PMC5481520 (Microbial Biotechnology, 2017)
